Data on one compound can be found in publication PMC6328046 (Gastroenterology, 2018).

In this experiment the target is HDAC2 (Homo sapiens, UniProt Q92769). The experiment in a line: surface plasmon resonance with recombinant HDAC2. It counts as binding.

pKd: −log10 of the molar value.

Chain of HDAC2 (Q92769 whole entry): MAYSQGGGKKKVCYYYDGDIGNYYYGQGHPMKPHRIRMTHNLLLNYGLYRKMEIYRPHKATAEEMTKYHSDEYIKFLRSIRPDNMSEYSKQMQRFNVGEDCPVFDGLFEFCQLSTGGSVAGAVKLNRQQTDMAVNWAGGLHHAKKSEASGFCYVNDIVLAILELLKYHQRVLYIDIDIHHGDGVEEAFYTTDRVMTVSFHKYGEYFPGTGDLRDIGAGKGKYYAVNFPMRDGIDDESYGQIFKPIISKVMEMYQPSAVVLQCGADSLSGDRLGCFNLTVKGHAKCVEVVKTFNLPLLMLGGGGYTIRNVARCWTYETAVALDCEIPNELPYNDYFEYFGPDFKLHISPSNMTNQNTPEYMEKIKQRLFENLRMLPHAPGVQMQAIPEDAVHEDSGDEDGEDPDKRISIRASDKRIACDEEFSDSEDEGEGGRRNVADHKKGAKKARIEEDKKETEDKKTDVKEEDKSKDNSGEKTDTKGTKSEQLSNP

Regarding `COc1ccc(Nc2nnc(-c3ccc(C(=O)NO)cc3)o2)cc1` [metavert], the pKd was 4.89.
